Assays:
NCI-H226 = assay: Antitumor activity against human NCI-H226 assessed as cell growth inhibition at 10 uM incubated for 48 hrs by sulforhodamine B assay; assay type: functional; conditions: read-out: GI
ACHN = assay: Antitumor activity against human ACHN cells assessed as cell growth inhibition at 10 uM incubated for 48 hrs by sulforhodamine B assay; assay type: functional; conditions: read-out: GI
MDA-MB-231 = assay: Antitumor activity against human MDA-MB-231/ATCC cells assessed as cell growth inhibition at 10 uM incubated for 48 hrs by sulforhodamine B assay; assay type: functional; conditions: read-out: GI
COLO 205 = assay: Antitumor activity against human COLO205 cells assessed as cell growth inhibition at 10 uM incubated for 48 hrs by sulforhodamine B assay; assay type: functional; conditions: read-out: GI
OVCAR-8 = assay: Antitumor activity against human OVCAR-8 cells assessed as cell growth inhibition at 10 uM incubated for 48 hrs by sulforhodamine B assay; assay type: functional; conditions: read-out: GI
LOX IMVI = assay: Antitumor activity against human LOX IMVI cells assessed as cell growth inhibition at 10 uM incubated for 48 hrs by sulforhodamine B assay; assay type: functional; conditions: read-out: GI
MDA-MB-435 = assay: Antitumor activity against human MDA-MB-435 cells assessed as cell growth inhibition at 10 uM incubated for 48 hrs by sulforhodamine B assay; assay type: functional; conditions: read-out: GI
UO-31 = assay: Antitumor activity against human UO-31 cells assessed as cell growth inhibition at 10 uM incubated for 48 hrs by sulforhodamine B assay; assay type: functional; conditions: read-out: GI
NCI-H522 = assay: Antitumor activity against human NCI-H522 cells assessed as cell growth inhibition at 10 uM incubated for 48 hrs by sulforhodamine B assay; assay type: functional; conditions: read-out: GI
SF-268 = assay: Antitumor activity against human SF268 cells assessed as cell growth inhibition at 10 uM incubated for 48 hrs by sulforhodamine B assay; assay type: functional; conditions: read-out: GI
U-251 = assay: Antitumor activity against human U251 cells assessed as cell growth inhibition at 10 uM incubated for 48 hrs by sulforhodamine B assay; assay type: functional; conditions: read-out: GI
NCI/ADR-RES = assay: Antitumor activity against human NCI/ADR-RES cells assessed as cell growth inhibition at 10 uM incubated for 48 hrs by sulforhodamine B assay; assay type: functional; conditions: read-out: GI
NCI-H460 = assay: Antitumor activity against human NCI-H460 assessed as cell growth inhibition at 10 uM incubated for 48 hrs by sulforhodamine B assay; assay type: functional; conditions: read-out: GI
SW-620 = assay: Antitumor activity against human SW620 cells assessed as cell growth inhibition at 10 uM incubated for 48 hrs by sulforhodamine B assay; conditions: SW-620, 48 h, read-out: GI
HCT-116 = assay: Antitumor activity against human HCT116 cells assessed as cell growth inhibition at 10 uM incubated for 48 hrs by sulforhodamine B assay; assay type: functional; conditions: read-out: GI
BT-549 = assay: Antitumor activity against human BT-549 cells assessed as cell growth inhibition at 10 uM incubated for 48 hrs by sulforhodamine B assay; assay type: functional; conditions: read-out: GI
SNB-75 = assay: Antitumor activity against human SNB-75 cells assessed as cell growth inhibition at 10 uM incubated for 48 hrs by sulforhodamine B assay; assay type: functional; conditions: read-out: GI
MOLT-4 = assay: Antitumor activity against human MOLT4 cells assessed as cell growth inhibition at 10 uM incubated for 48 hrs by sulforhodamine B assay; assay type: functional; conditions: read-out: GI
Hs-578T = assay: Antitumor activity against human HS 578T cells assessed as cell growth inhibition at 10 uM incubated for 48 hrs by sulforhodamine B assay; assay type: functional; conditions: read-out: GI
SN12C = assay: Antitumor activity against human SN12C cells assessed as cell growth inhibition at 10 uM incubated for 48 hrs by sulforhodamine B assay; assay type: functional; conditions: read-out: GI
EKVX = assay: Antitumor activity against human EKVX cells assessed as cell growth inhibition at 10 uM incubated for 48 hrs by sulforhodamine B assay; assay type: functional; conditions: read-out: GI
HL-60(TB) = assay: Antitumor activity against human HL-60(TB) cells assessed as cell growth inhibition at 10 uM incubated for 48 hrs by sulforhodamine B assay; assay type: functional; conditions: read-out: GI
KM12 = assay: Antitumor activity against human KM12 cells assessed as cell growth inhibition at 10 uM incubated for 48 hrs by sulforhodamine B assay; assay type: functional; conditions: read-out: GI
CCRF-CEM = assay: Antitumor activity against human CCRF-CEM cells assessed as cell growth inhibition at 10 uM incubated for 48 hrs by sulforhodamine B assay; assay type: functional; conditions: read-out: GI
PC-3 = assay: Antitumor activity against human PC-3 cells assessed as cell growth inhibition at 10 uM incubated for 48 hrs by sulforhodamine B assay; assay type: functional; conditions: read-out: GI
OVCAR-4 = assay: Antitumor activity against human OVCAR-4 cells assessed as cell growth inhibition at 10 uM incubated for 48 hrs by sulforhodamine B assay; assay type: functional; conditions: read-out: GI
IGROV-1 = assay: Antitumor activity against human IGROV1 cells assessed as cell growth inhibition at 10 uM incubated for 48 hrs by sulforhodamine B assay; assay type: functional; conditions: read-out: GI
SR = assay: Antitumor activity against human SR cells assessed as cell growth inhibition at 10 uM incubated for 48 hrs by sulforhodamine B assay; assay type: functional; conditions: read-out: GI
A498 = assay: Antitumor activity against human A498 cells assessed as cell growth inhibition at 10 uM incubated for 48 hrs by sulforhodamine B assay; assay type: functional; conditions: read-out: GI
RXF 393 = assay: Antitumor activity against human RXF 393 cells assessed as cell growth inhibition at 10 uM incubated for 48 hrs by sulforhodamine B assay; assay type: functional; conditions: read-out: GI
SF-295 = assay: Antitumor activity against human SF295 cells assessed as cell growth inhibition at 10 uM incubated for 48 hrs by sulforhodamine B assay; assay type: functional; conditions: read-out: GI
Malme-3M = assay: Antitumor activity against human MALME-3M cells assessed as cell growth inhibition at 10 uM incubated for 48 hrs by sulforhodamine B assay; assay type: functional; conditions: read-out: GI
HCC 2998 = assay: Antitumor activity against human HCC2998 cells assessed as cell growth inhibition at 10 uM incubated for 48 hrs by sulforhodamine B assay; assay type: functional; conditions: read-out: GI
HCT-15 = assay: Antitumor activity against human HCT15 cells assessed as cell growth inhibition at 10 uM incubated for 48 hrs by sulforhodamine B assay; assay type: functional; conditions: read-out: GI
MDA-MB-468 = assay: Antitumor activity against human MDA-MB-468 cells assessed as cell growth inhibition at 10 uM incubated for 48 hrs by sulforhodamine B assay; assay type: functional; conditions: read-out: GI
M14 = assay: Antitumor activity against human M14 cells assessed as cell growth inhibition at 10 uM incubated for 48 hrs by sulforhodamine B assay; assay type: functional; conditions: read-out: GI
786-0 = assay: Antitumor activity against human 786-0 cells assessed as cell growth inhibition at 10 uM incubated for 48 hrs by sulforhodamine B assay; assay type: functional; conditions: read-out: GI
MCF7 = assay: Antitumor activity against human MCF7 cells assessed as cell growth inhibition at 10 uM incubated for 48 hrs by sulforhodamine B assay; assay type: functional; conditions: read-out: GI
UACC-62 = assay: Antitumor activity against human UACC-62 cells assessed as cell growth inhibition at 10 uM incubated for 48 hrs by sulforhodamine B assay; assay type: functional; conditions: read-out: GI
SNB-19 = assay: Antitumor activity against human SNB-19 cells assessed as cell growth inhibition at 10 uM incubated for 48 hrs by sulforhodamine B assay; assay type: functional; conditions: read-out: GI
SK-OV-3 = assay: Antitumor activity against human SK-OV-3 cells assessed as cell growth inhibition at 10 uM incubated for 48 hrs by sulforhodamine B assay; assay type: functional; conditions: read-out: GI
HT-29 = assay: Antitumor activity against human HT-29 cells assessed as cell growth inhibition at 10 uM incubated for 48 hrs by sulforhodamine B assay; assay type: functional; conditions: read-out: GI
OVCAR-3 = assay: Antitumor activity against human OVCAR-3 cells assessed as cell growth inhibition at 10 uM incubated for 48 hrs by sulforhodamine B assay; assay type: functional; conditions: read-out: GI
K562 = assay: Antitumor activity against human K562 cells assessed as cell growth inhibition at 10 uM incubated for 48 hrs by sulforhodamine B assay; assay type: functional; conditions: read-out: GI
RPMI-8226 = assay: Antitumor activity against human RPMI8226 cells assessed as cell growth inhibition at 10 uM incubated for 48 hrs by sulforhodamine B assay; assay type: functional; conditions: read-out: GI
SK-MEL-28 = assay: Antitumor activity against human SK-MEL-28 cells assessed as cell growth inhibition at 10 uM incubated for 48 hrs by sulforhodamine B assay; assay type: functional; conditions: read-out: GI
NCI-H23 = assay: Antitumor activity against human NCI-H23 cells assessed as cell growth inhibition at 10 uM incubated for 48 hrs by sulforhodamine B assay; assay type: functional; conditions: read-out: GI
HOP-92 = assay: Antitumor activity against human HOP92 cells assessed as cell growth inhibition at 10 uM incubated for 48 hrs by sulforhodamine B assay; assay type: functional; conditions: read-out: GI

Structure (SMILES): CCN(CC)c1ccc(-c2nc3c4ccccc4c4ccccc4c3o2)c(O)c1
- inhibition of growth at 10 µM (NCI-H226): < 10%
- inhibition of growth at 10 µM (ACHN): 23.1%
- inhibition of growth at 10 µM (MDA-MB-231): 35.2%
- inhibition of growth at 10 µM (COLO 205): 12.8%
- inhibition of growth at 10 µM (OVCAR-8): 15%
- inhibition of growth at 10 µM (LOX IMVI): 75.3%
- inhibition of growth at 10 µM (MDA-MB-435): < 10%
- inhibition of growth at 10 µM (UO-31): 35.2%
- inhibition of growth at 10 µM (NCI-H522): 19.8%
- inhibition of growth at 10 µM (SF-268): 12%
- inhibition of growth at 10 µM (U-251): 15.6%
- inhibition of growth at 10 µM (NCI/ADR-RES): 11%
- inhibition of growth at 10 µM (NCI-H460): 15%
- inhibition of growth at 10 µM (SW-620): 31.4%
- inhibition of growth at 10 µM (HCT-116): 16.6%
- inhibition of growth at 10 µM (BT-549): < 10%
- inhibition of growth at 10 µM (SNB-75): < 10%
- inhibition of growth at 10 µM (MOLT-4): 39%
- inhibition of growth at 10 µM (Hs-578T): 10%
- inhibition of growth at 10 µM (SN12C): < 10%
- inhibition of growth at 10 µM (EKVX): 20.2%
- inhibition of growth at 10 µM (HL-60(TB)): 31.4%
- inhibition of growth at 10 µM (KM12): 55.6%
- inhibition of growth at 10 µM (CCRF-CEM): 41.4%
- inhibition of growth at 10 µM (PC-3): 20.3%
- inhibition of growth at 10 µM (OVCAR-4): < 10%
- inhibition of growth at 10 µM (IGROV-1): 19.2%
- inhibition of growth at 10 µM (SR): 72.4%
- inhibition of growth at 10 µM (A498): < 10%
- inhibition of growth at 10 µM (RXF 393): 16.6%
- inhibition of growth at 10 µM (SF-295): < 10%
- inhibition of growth at 10 µM (Malme-3M): < 10%
- inhibition of growth at 10 µM (HCC 2998): 18.7%
- inhibition of growth at 10 µM (HCT-15): 65.1%
- inhibition of growth at 10 µM (MDA-MB-468): 15.8%
- inhibition of growth at 10 µM (M14): 12.4%
- inhibition of growth at 10 µM (786-0): 12.2%
- inhibition of growth at 10 µM (MCF7): 43.2%
- inhibition of growth at 10 µM (UACC-62): 11.2%
- inhibition of growth at 10 µM (SNB-19): < 10%
- inhibition of growth at 10 µM (SK-OV-3): < 10%
- inhibition of growth at 10 µM (HT-29): 64.3%
- inhibition of growth at 10 µM (OVCAR-3): 10.3%
- inhibition of growth at 10 µM (K562): 79.7%
- inhibition of growth at 10 µM (RPMI-8226): 44.6%
- inhibition of growth at 10 µM (SK-MEL-28): < 10%
- inhibition of growth at 10 µM (NCI-H23): 13.5%
- inhibition of growth at 10 µM (HOP-92): 11%

— ChEMBL document CHEMBL4665624, “Synthesis of 5-(4-(1H-phenanthro[9,10-d]imidazol-2-yl)benzylidene)thiazolidine-2,4-dione as promising DNA and serum albumin-binding agents and evaluation of antitumor activity” (Eur J Med Chem, 2019)
